The values that follow come from US10358447B2, “Substituted 2-N-hydroxy-1,3-dioxo-1,2,3,4-tetrahydronaphthyridines, and methods of making and using same” (ARBUTUS BIOPHARMA CORPORATION, priority 2017, dated 2019).

Assay type in all cases: cell-based
In test [1] the test system is HBV rcDNA in HepDE19 cells. Nature of the test: HepDE19 assay with bDNA quantitation of HBV rcDNA. As to conditions: Hepatitis B virus. An excerpt:
(§1) The invention further provides a method of screening compounds for activity against HBV, as exemplified herein. In certain embodiments, the method comprises a HepDE19 assay with bDNA quantitation of HBV rcDNA. HepDE19 cell culture system is a HepG2 (human hepatocarcinoma) derived cell line that supports HBV DNA replication and cccDNA formation in a tetracycline (Tet)-regulated manner and produces HBV rcDNA and a detectable reporter molecule dependent on the production and maintenance of cccDNA (Tavis & Lomonosova, 2015, Antiviral Res. 118:132-138). In certain non-limiting embodiments, HepDE19 (50,000 cells/well) are plated in 96 well collagen-coated tissue-culture treated microtiter plates in DMEM/F12 medium supplemented with 10% fetal bovine serum, 1% penicillin-streptomycin and 1 μg/ml tetracycline and incubated in a humidified incubator at 37° C. and 5% CO2 overnight. Next day, the cells are switched to fresh medium without tetracycline and incubated for 4 hrs at 37° C. and 5% CO2. The cells are treated with fresh Tet-free medium with compounds at concentrations starting at 25 μM and a serial, ½ log, 8-point, titration series in duplicate. The final DMSO concentration in the assay is 0.5%. The plates are incubated for 7 days in a humidified incubator at 37° C. and 5% CO2. Following a 7 day-incubation, the level of rcDNA present in the inhibitor-treated wells is measured using a Quantigene 2.0 bDNA assay kit (Affymetrix, Santa Clara, Calif.) with HBV specific custom probe set and manufacturer's instructions.
In order to differentiate HBV RNaseH inhibitors from other classes of HBV inhibitors (such as, for example, nucleos(t)ide analogs or capsid inhibitors), the assay method is configured by incorporating the quantitation of both the minus-strand and the plus-strand of HBV rcDNA levels using specifically designed HBV probe sets. This is based on the observation that inhibition of RNaseH enzyme activity results in a block of the synthesis of the plus strand synthesis by the viral polymerase that follows the synthesis of the minus-strand of rcDNA (Guo, et al., 2007, J. Virol. 81:12472-12484). […] In contrast, treatment with HBV inhibitors such as a nucleos(t)ide analogs or capsid inhibitors reduces production of both strands of HBV rcDNA in cells. Concurrently, the effect of compounds on cell viability can be assessed using replicate plates, plated at a density of 5,000 cells/well and incubated for 4 days, to determine the ATP content as a measure of cell viability using the cell-titer glo reagent (CTG; Promega Corporation, Madison, Wis.) as per manufacturer's instructions. The plates are read using a Victor luminescence plate reader (PerkinElmer Model 1420 Multilabel counter), and the relative luminescence units (RLU) data generated from each well was calculated as % inhibition of the untreated control wells and analyzed using XL-Fit module in Microsoft Excel to determine EC50 and EC90 (bDNA) and CC50 (CTG) values using a 4-parameter curve fitting algorithm.
HepDE19 cell culture system is a HepG2 (human hepatocarcinoma) derived cell line that supports HBV DNA replication and cccDNA formation in a tetracycline (Tet)-regulated manner and produces HBV rcDNA and a detectable reporter molecule dependent on the production and maintenance of cccDNA (Guo, et al., 2007, J. Virol. 81:12472-12484). HepDE19 (50,000 cells/well) were plated in 96 well collagen-coated tissue-culture treated microtiter plates in DMEM/F12 medium supplemented with 10% fetal bovine serum, 1% penicillin-streptomycin and 1μg/ml tetracycline and incubated in a humidified incubator at 37° C. and 5% CO2 overnight. Next day, the cells were switched to fresh medium without tetracycline and incubated for 4 hrs at 37° C. and 5%CO2. The cells were treated with fresh Tet-free medium with compounds at concentrations starting at 25 μM and a serial, ½ log, 8-point, titration series in duplicate. The final DMSO concentration in the assay was 0.5%. […]

The subject of test [2] is HA-tagged HBeAg (HBV) in DESHAe82 cells. The test can be described thus: AlphaLisa eAg assay: HA-HBeAg level in DESHAe82 cell culture (anti-HBV / anti-cccDNA activity). To be noted: Hepatitis B virus, 216 h, read-out: AlphaLisa_eAg EC50 (μM). The procedure:
Evaluation of anti-HBV activity of the compounds in in vitro cell culture studies was conducted using a modification of the assay system described in Cai et al., 2012, Antimicrobial Agents Chemotherapy 56(8):4277-88 and PCT/EP/2015/06838. In the DESHAe82 cell culture system, the HA epitope-tagged secreted HBV “e antigen” (HBeAg) and HBV precore RNA are produced only from the cccDNA circular template that is formed after HBV replication in absence of Tetracycline (Tet). The DESHAe82 cell line produces high levels of cccDNA synthesis and HA-HBeAg, and high specific readout signals with low noise. Two assay systems, a chemiluminescence ELISA (CLIA) and a proximity […] assay (AlphaLISA) were developed and used for high-sensitivity detection of HA-tagged HBeAg.
To test the compound, DESHAe82 were plated in 96 well tissue-culture treated microtiter plates in DMEM/F12 medium supplemented with 10% fetal bovine serum+1% penicillin-streptomycin with Tet, and incubated in a humidified incubator at 37° C. and 5% CO2 overnight. Next day, the cells were switched to fresh medium without Tet and treated with a test compound, over a range of concentrations (compound was solubilized in 100% DMSO before dilution in cell culture media, and the final DMSO concentration in the assay was 0.5%), and incubated for a duration of 9 days in a humidified incubator at 37° C. and 5% CO2. Untreated negative control samples (0.5% DMSO only) were included on each plate in multiple wells. On day 9, media was harvested and removed to a fresh plate, and level of HA-HBeAg was determined by CLIA or AlphaLISA. Anti-cccDNA activity of each test compound concentration was calculated as a percentage of HA-HBeAg signal detected in negative control samples versus compound-treated samples, and EC50 value for each compound was defined as the concentration that reduced the HA-HBeAg signal by 50%.
(In Alpha technology, singlet oxygen from a donor bead excites a nearby acceptor bead.)

Test [3] relates to plus-strand of HBV rcDNA in HepDE19 cells. The test can be described thus: HepDE19 assay with bDNA quantitation of the plus-strand of HBV rcDNA. To be noted: Hepatitis B virus.
Description: as §1
In order to differentiate HBV RNaseH inhibitors from other classes of HBV inhibitors (such as, for example, nucleos(t)ide analogs or capsid inhibitors), the assay method is configured by incorporating the quantitation of both the minus-strand and the plus-strand of HBV rcDNA levels using specifically designed HBV probe sets. […] Concurrently, the effect of compounds on cell viability can be assessed using replicate plates, plated at a density of 5,000 cells/well and incubated for 4 days, to determine the ATP content as a measure of cell viability using the cell-titer glo reagent (CTG; Promega Corporation, Madison, Wis.) as per manufacturer's instructions. The plates are read using a Victor luminescence plate reader (PerkinElmer Model 1420 Multilabel counter), and the relative luminescence units (RLU) data generated from each well was calculated as % inhibition of the untreated control wells and analyzed using XL-Fit module in Microsoft Excel to determine EC50 and EC90 (bDNA) and CC50 (CTG) values using a 4-parameter curve fitting algorithm. […]

Setting [4] is: 168 h, HepDE19 cells, 7 day incubation, top concentration 25 μM, read-out: bDNA_RC DNA EC50.
Where [5] appears, read: HepDE19, 168 h, read-out: bDNA_RC DNA EC50 (μM).
Where [6] appears, read: 168 h, HepDE19 cells, 7 day incubation, plus-strand probe set, top concentration 25 μM, read-out: bDNA_RC DNA PS EC50.

Read-outs that look alike come from different tables or passages of the source.

With `CCOC(=O)C1C(=O)N(O)C(=O)c2ccc(OC)nc21` (stereo not shown) [Compound 1, Ethyl 6-hydroxy-2-methoxy-5,7-dioxo-5,6,7,8-tetrahydro-1,6-naphthyridine-8-carboxylate], the figures for the EC50 in test [1] (setting [4]) and in test [2] were greater than 25 µM and 2.4 µM, respectively.
For the compound `COc1ccc2c(n1)C(C(=O)Nc1ccc(Cl)cc1)C(=O)N(O)C2=O` (stereo not shown) [Compound 3, N-(4-chlorophenyl)-6-hydroxy-2-methoxy-5,7-dioxo-5,6,7,8-tetrahydro-1,6-naphthyridine-8-carboxamide], the EC50 (commonly the midpoint of the concentration-response curve) was 16 µM in test [3] (HepDE19, 168 h, read-out: bDNA_RC DNA PS EC50 (μM)); 9.4 µM in test [1] (setting [5]); 9.6 µM in test [2].
Take `O=C(NCc1ccc(F)cc1)C1C(=O)N(O)C(=O)c2ccc(O)nc21` (stereo not shown) [Compound 6, N-(4-fluorobenzyl)-2,6-dihydroxy-5,7-dioxo-5,6,7,8-tetrahydro-1,6-naphthyridine-8-carboxamide]: the EC50 in test [3] (setting [6]) was 15 µM; in test [1] (setting [4]), greater than 25 µM; in test [2], 3.6 µM.
In the case of `CCN(CC)C(=O)C1C(=O)N(O)C(=O)c2ccc(OC)nc21` (stereo not shown) [Compound 2, N,N-diethyl-6-hydroxy-2-methoxy-5,7-dioxo-5,6,7,8-tetrahydro-1,6-naphthyridine-8-carboxamide], the EC50 in test [3] (setting [6]) is 11.2 µM; in test [1] (setting [4]) it was greater than 25 µM; in test [2], 1.5 µM.
As to `COc1ccc2c(n1)C(C(=O)NCc1ccc(Cl)cc1)C(=O)N(O)C2=O` (stereo not shown) [Compound 5, N-(4-chlorobenzyl)-6-hydroxy-2-methoxy-5,7-dioxo-5,6,7,8-tetrahydro-1,6-naphthyridine-8-carboxamide], the EC50 was greater than 25 µM in test [3] (setting [6]), greater than 25 µM in test [1] (setting [4]) and greater than 50 µM in test [2].
As to `COc1ccc2c(n1)C(C(=O)Nc1ccc(F)cc1)C(=O)N(O)C2=O` (stereo not shown) [Compound 4, N-(4-fluorophenyl)-6-hydroxy-2-methoxy-5,7-dioxo-5,6,7,8-tetrahydro-1,6-naphthyridine-8-carboxamide], the values for the EC50 in test [1] (setting [5]) and in test [2] were greater than 25 µM and 9.6 µM, respectively.
